# According to ChEMBL document CHEMBL1201862, “PubChem BioAssay data set” (2004):
# Values joined by “and” are separate entries in the source; they are usually repeats but may differ in a detail not shown here. Identical values can stand only once.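 Growth conditions: 96-well plates. Treatment: test compound, 48 hours, 5 concentrations. Analysis: linear interpolation between bracketing concentrations; unreached endpoints set to highest concentration. Abbreviation: GI50, concentration required for 50% inhibition of growth.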 Active and inactive are the calls of the source. Rule as the data show it: active = GI50 up to about 1.1 µM and inactive = higher. Residues, ends and D or L forms follow the SMILES beside them. *: point of attachment. Boc = CC(C)(C)OC(=O)*; Bn = c1ccc(C*)cc1
# Tests used:
# Experiment in all cases: NCI-60 cell line screen, 48 h
# Hs-578T = tested on: Hs-578T
# CAKI-1 = tested on: CAKI-1
# TK-10 = tested on: TK-10
# EKVX = tested on: EKVX
# DU-145 = tested on: DU-145
# SNB-19 = tested on: SNB-19
# A498 = tested on: A498
# UACC-257 = tested on: UACC-257
# MDA-N = tested on: MDA-N
# BT-549 = tested on: BT-549
# OVCAR-8 = tested on: OVCAR-8
# SF-268 = tested on: SF-268
# RXF 393 = tested on: RXF 393
# M14 = tested on: M14
# UO-31 = tested on: UO-31
# PC-3 = tested on: PC-3
# OVCAR-5 = tested on: OVCAR-5
# HCT-116 = tested on: HCT-116
# NCI-H460 = tested on: NCI-H460
# KM12 = tested on: KM12
# SK-OV-3 = tested on: SK-OV-3
# SN12C = tested on: SN12C
# SF-539 = tested on: SF-539
# U-251 = tested on: U-251
# HOP-92 = tested on: HOP-92
# HT-29 = tested on: HT-29
# SK-MEL-5 = tested on: SK-MEL-5
# ACHN = tested on: ACHN
# SF-295 = tested on: SF-295
# MDA-MB-435 = tested on: MDA-MB-435
# UACC-62 = tested on: UACC-62
# HCT-15 = tested on: HCT-15
# SK-MEL-28 = tested on: SK-MEL-28
# IGROV-1 = tested on: IGROV-1
# OVCAR-4 = tested on: OVCAR-4
# OVCAR-3 = tested on: OVCAR-3
# SW-620 = tested on: SW-620
# COLO 205 = tested on: COLO 205
# SNB-75 = tested on: SNB-75
# NCI-H23 = tested on: NCI-H23
# NCI-H522 = tested on: NCI-H522
# A549 = tested on: A549
# 786-0 = tested on: 786-0
# SR = tested on: SR
# HOP-62 = tested on: HOP-62
# NCI/ADR-RES = tested on: NCI/ADR-RES
# K562 = tested on: K562
# MCF7 = tested on: MCF7
# LOX IMVI = tested on: LOX IMVI
# MDA-MB-231 = tested on: MDA-MB-231
# MOLT-4 = tested on: MOLT-4
# SK-MEL-2 = tested on: SK-MEL-2
# T47D = tested on: T47D
# HL-60 = tested on: HL-60
# RPMI-8226 = tested on: RPMI-8226
# CCRF-CEM = tested on: CCRF-CEM
# Malme-3M = tested on: Malme-3M
# HCC 2998 = tested on: HCC 2998
smiles,measurement,setting,value
CCn1nc(C)c2c1C(=O)NCC(=O)N2,GI50,Hs-578T,> 100 µM (inactive)
same,GI50,CAKI-1,> 100 µM (inactive)
same,GI50,TK-10,> 100 µM (inactive)
same,GI50,EKVX,> 100 µM (inactive)
same,GI50,DU-145,> 100 µM (inactive)
same,GI50,SNB-19,> 100 µM (inactive)
same,GI50,A498,> 100 µM (inactive)
same,GI50,UACC-257,> 100 µM (inactive)
same,GI50,MDA-N,> 100 µM (inactive)
same,GI50,BT-549,> 100 µM (inactive)
same,GI50,OVCAR-8,> 100 µM (inactive)
same,GI50,SF-268,> 100 µM (inactive)
same,GI50,RXF 393,> 100 µM (inactive)
same,GI50,M14,> 100 µM (inactive)
same,GI50,UO-31,> 100 µM (inactive)
same,GI50,PC-3,> 100 µM (inactive)
same,GI50,OVCAR-5,> 100 µM (inactive)
same,GI50,HCT-116,> 100 µM (inactive)
same,GI50,NCI-H460,> 100 µM (inactive)
same,GI50,KM12,> 100 µM (inactive)
same,GI50,SK-OV-3,> 100 µM (inactive)
same,GI50,SN12C,> 100 µM (inactive)
same,GI50,SF-539,> 100 µM (inactive)
same,GI50,U-251,> 100 µM (inactive)
same,GI50,HOP-92,> 100 µM (inactive)
same,GI50,HT-29,> 100 µM (inactive)
same,GI50,SK-MEL-5,> 100 µM (inactive)
same,GI50,ACHN,> 100 µM (inactive)
same,GI50,SF-295,> 100 µM (inactive)
same,GI50,MDA-MB-435,> 100 µM (inactive)
same,GI50,UACC-62,> 100 µM (inactive)
same,GI50,HCT-15,> 100 µM
same,GI50,SK-MEL-28,> 100 µM (inactive)
same,GI50,IGROV-1,> 100 µM (inactive)
same,GI50,OVCAR-4,> 100 µM (inactive)
same,GI50,OVCAR-3,> 100 µM (inactive)
same,GI50,SW-620,> 100 µM (inactive)
same,GI50,COLO 205,> 100 µM (inactive)
same,GI50,SNB-75,> 100 µM (inactive)
same,GI50,NCI-H23,> 100 µM (inactive)
same,GI50,NCI-H522,> 100 µM (inactive)
same,GI50,A549,> 100 µM (inactive)
CNC(=O)C(CC(C)C)NC(=O)C(C)NC(=O)C(Cc1ccc(OCc2ccccc2)cc1)NC(=O)C(COCc1ccccc1)NC(=O)OC(C)(C)C (stereo not drawn) (Boc-S(Bn)Y(Bn)AL-NHMe; configuration not given here),GI50,Hs-578T,25 µM (inactive) and 15.8 µM (inactive)
same,GI50,CAKI-1,32.5 µM (inactive) and > 64 µM (inactive)
same,GI50,DU-145,65.5 µM (inactive)
same,GI50,SNB-19,30 µM (inactive) and 17.4 µM (inactive)
same,GI50,UACC-257,> 100 µM (inactive)
same,GI50,MDA-N,12.1 µM (inactive) and 14.8 µM (inactive)
same,GI50,BT-549,18.5 µM (inactive) and 22 µM (inactive)
same,GI50,OVCAR-8,16.9 µM (inactive) and 17.1 µM (inactive)
same,GI50,SF-268,17.5 µM (inactive) and 22.9 µM (inactive)
same,GI50,786-0,22.8 µM (inactive) and 20.7 µM (inactive)
same,GI50,UO-31,> 100 µM (inactive)
same,GI50,HCT-116,6.5 µM (inactive) and 7.45 µM (inactive)
same,GI50,KM12,17 µM (inactive) and 18.2 µM (inactive)
same,GI50,SK-OV-3,18.5 µM (inactive) and 27.7 µM (inactive)
same,GI50,SR,15.1 µM (inactive) and 8.55 µM (inactive)
same,GI50,SF-539,> 42.2 µM (inactive)
same,GI50,HOP-62,20.5 µM (inactive) and 22.6 µM (inactive)
same,GI50,U-251,15.9 µM (inactive) and 8.57 µM (inactive)
same,GI50,NCI/ADR-RES,> 100 µM (inactive)
same,GI50,HOP-92,24.9 µM (inactive) and 30.5 µM (inactive)
same,GI50,HT-29,13.6 µM (inactive) and 13.4 µM (inactive)
same,GI50,UACC-62,18.5 µM (inactive) and > 10 µM (inactive)
same,GI50,HCT-15,> 100 µM
same,GI50,IGROV-1,22.3 µM (inactive) and 23.1 µM (inactive)
same,GI50,K562,9.95 µM (inactive) and 12.6 µM (inactive)
same,GI50,OVCAR-4,17.9 µM (inactive) and 20.6 µM (inactive)
same,GI50,MCF7,10.7 µM (inactive) and 16.1 µM (inactive)
same,GI50,LOX IMVI,16.5 µM (inactive) and 11.4 µM (inactive)
same,GI50,SW-620,11.5 µM (inactive) and 8.65 µM (inactive)
same,GI50,MDA-MB-231,15.6 µM (inactive) and 16.6 µM (inactive)
same,GI50,NCI-H23,20.1 µM (inactive) and 27.2 µM (inactive)
same,GI50,NCI-H522,> 10 µM (inactive) and 13.8 µM (inactive)
same,GI50,MOLT-4,6.85 µM (inactive) and 6.15 µM (inactive)
O=C1c2cc3c(cc2CC12Cc1ccc4c(c1C2=O)CCC4)CCC3 (stereo not drawn),GI50,Hs-578T,> 100 µM (inactive)
same,GI50,SK-MEL-2,> 100 µM (inactive)
same,GI50,CAKI-1,> 100 µM (inactive)
same,GI50,TK-10,> 100 µM (inactive)
same,GI50,EKVX,> 100 µM (inactive)
same,GI50,DU-145,> 100 µM (inactive)
same,GI50,SNB-19,94.6 µM (inactive)
same,GI50,A498,> 100 µM (inactive)
same,GI50,UACC-257,> 100 µM (inactive)
same,GI50,MDA-N,> 100 µM (inactive)
same,GI50,OVCAR-8,> 100 µM (inactive)
same,GI50,SF-268,> 100 µM (inactive)
same,GI50,T47D,> 100 µM (inactive)
same,GI50,RXF 393,> 100 µM (inactive)
same,GI50,M14,> 100 µM (inactive)
same,GI50,786-0,65.6 µM (inactive)
same,GI50,UO-31,> 100 µM (inactive)
same,GI50,PC-3,> 100 µM (inactive)
same,GI50,OVCAR-5,> 100 µM (inactive)
same,GI50,HCT-116,> 100 µM (inactive)
same,GI50,NCI-H460,> 100 µM (inactive)
same,GI50,SK-OV-3,43.8 µM (inactive)
same,GI50,SR,> 100 µM (inactive)
same,GI50,SF-539,> 100 µM (inactive)
same,GI50,HOP-62,74 µM (inactive)
same,GI50,U-251,33.6 µM (inactive)
same,GI50,NCI/ADR-RES,> 100 µM (inactive)
same,GI50,HOP-92,> 100 µM (inactive)
same,GI50,HT-29,> 100 µM (inactive)
same,GI50,HL-60,> 100 µM (inactive)
same,GI50,SK-MEL-5,> 100 µM (inactive)
same,GI50,RPMI-8226,> 100 µM (inactive)
same,GI50,ACHN,> 100 µM (inactive)
same,GI50,SF-295,> 100 µM (inactive)
same,GI50,MDA-MB-435,> 100 µM (inactive)
same,GI50,HCT-15,> 100 µM
same,GI50,CCRF-CEM,> 100 µM (inactive)
same,GI50,Malme-3M,41.7 µM (inactive)
same,GI50,SK-MEL-28,> 100 µM (inactive)
same,GI50,IGROV-1,> 100 µM (inactive)
same,GI50,K562,> 100 µM (inactive)
same,GI50,OVCAR-4,50.6 µM (inactive)
same,GI50,OVCAR-3,75.5 µM (inactive)
same,GI50,MCF7,> 100 µM (inactive)
same,GI50,HCC 2998,> 100 µM (inactive)
same,GI50,LOX IMVI,> 100 µM (inactive)
same,GI50,SW-620,> 100 µM (inactive)
same,GI50,SNB-75,> 100 µM (inactive)
same,GI50,MDA-MB-231,> 100 µM (inactive)
same,GI50,NCI-H23,> 100 µM (inactive)
same,GI50,NCI-H522,> 100 µM (inactive)
same,GI50,MOLT-4,> 100 µM (inactive)
same,GI50,A549,> 100 µM (inactive)
